# According to patent US4705786A, “Novel oxadiazolyl-1,4-dihydropyridines useful as antihypertensive agents” (Sumitomo Pharmaceuticals Company, Limited, priority 1984, dated 1987):
# Structures can show the parent of a compound that is named as a salt.
# How the values were obtained:
# [1] = target: isolated strips of the descending aorta (Rattus norvegicus, UniProt P22002); assay: cell-based; parameters: species or system Male Wistar rats; details: for Kb: isolated rat aorta, Ca2+ dose-response curves in 25 mM K+, Arunlakshana method, read-out: pA2 (converted)
# Chain of isolated strips of the descending aorta (P22002 whole entry): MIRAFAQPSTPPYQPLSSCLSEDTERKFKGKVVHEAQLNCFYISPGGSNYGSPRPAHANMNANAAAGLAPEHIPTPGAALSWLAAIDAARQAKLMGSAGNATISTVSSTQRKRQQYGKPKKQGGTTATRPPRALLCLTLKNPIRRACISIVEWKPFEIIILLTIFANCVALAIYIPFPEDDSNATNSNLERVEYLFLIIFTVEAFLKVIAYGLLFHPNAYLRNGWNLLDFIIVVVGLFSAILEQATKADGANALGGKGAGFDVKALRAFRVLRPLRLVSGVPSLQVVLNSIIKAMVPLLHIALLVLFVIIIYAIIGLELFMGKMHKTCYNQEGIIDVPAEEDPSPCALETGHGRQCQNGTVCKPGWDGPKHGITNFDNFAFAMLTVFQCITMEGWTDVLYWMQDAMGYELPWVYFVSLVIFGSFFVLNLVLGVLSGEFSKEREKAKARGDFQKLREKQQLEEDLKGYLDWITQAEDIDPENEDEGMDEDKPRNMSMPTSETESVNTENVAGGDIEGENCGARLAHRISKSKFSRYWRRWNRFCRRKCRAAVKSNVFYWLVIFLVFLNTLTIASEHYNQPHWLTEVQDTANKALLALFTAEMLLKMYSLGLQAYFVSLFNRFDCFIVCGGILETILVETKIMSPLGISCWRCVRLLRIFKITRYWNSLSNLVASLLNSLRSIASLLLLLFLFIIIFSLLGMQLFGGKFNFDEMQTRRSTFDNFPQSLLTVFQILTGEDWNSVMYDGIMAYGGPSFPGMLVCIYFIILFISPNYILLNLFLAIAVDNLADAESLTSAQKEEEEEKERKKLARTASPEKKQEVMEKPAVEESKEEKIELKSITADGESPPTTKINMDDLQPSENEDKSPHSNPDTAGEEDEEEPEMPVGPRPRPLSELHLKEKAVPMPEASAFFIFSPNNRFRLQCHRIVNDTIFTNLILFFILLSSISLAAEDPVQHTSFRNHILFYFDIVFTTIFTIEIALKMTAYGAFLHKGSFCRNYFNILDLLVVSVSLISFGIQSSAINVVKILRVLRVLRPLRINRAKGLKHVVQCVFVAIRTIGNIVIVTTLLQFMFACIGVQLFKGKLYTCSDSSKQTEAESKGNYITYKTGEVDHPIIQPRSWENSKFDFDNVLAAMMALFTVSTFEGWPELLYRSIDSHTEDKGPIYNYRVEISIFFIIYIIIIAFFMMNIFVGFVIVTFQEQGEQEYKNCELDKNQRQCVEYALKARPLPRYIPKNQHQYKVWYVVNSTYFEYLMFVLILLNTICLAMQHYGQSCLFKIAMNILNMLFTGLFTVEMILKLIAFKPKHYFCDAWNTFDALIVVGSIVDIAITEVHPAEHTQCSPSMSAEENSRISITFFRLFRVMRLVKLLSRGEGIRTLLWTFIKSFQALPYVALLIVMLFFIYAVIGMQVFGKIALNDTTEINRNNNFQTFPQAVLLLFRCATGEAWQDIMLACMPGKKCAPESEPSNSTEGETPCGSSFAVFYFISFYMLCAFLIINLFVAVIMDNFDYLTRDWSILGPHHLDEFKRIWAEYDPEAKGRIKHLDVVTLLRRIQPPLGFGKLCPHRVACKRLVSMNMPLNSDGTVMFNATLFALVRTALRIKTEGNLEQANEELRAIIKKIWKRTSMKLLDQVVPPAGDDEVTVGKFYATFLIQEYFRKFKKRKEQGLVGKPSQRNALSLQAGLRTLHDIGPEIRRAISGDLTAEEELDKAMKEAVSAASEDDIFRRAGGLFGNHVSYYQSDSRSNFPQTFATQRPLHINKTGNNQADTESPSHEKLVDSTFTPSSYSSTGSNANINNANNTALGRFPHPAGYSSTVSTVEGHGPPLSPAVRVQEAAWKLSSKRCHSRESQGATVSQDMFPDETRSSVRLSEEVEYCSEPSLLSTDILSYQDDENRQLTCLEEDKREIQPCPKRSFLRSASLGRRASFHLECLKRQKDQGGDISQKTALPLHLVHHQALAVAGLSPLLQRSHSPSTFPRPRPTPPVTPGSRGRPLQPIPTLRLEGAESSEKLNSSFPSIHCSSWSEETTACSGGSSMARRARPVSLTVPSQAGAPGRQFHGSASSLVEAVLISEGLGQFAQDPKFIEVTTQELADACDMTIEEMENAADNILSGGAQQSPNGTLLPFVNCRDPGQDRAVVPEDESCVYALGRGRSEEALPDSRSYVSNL
# Chain of isolated strips of the descending aorta (P54290 25-944 partner limits assumed): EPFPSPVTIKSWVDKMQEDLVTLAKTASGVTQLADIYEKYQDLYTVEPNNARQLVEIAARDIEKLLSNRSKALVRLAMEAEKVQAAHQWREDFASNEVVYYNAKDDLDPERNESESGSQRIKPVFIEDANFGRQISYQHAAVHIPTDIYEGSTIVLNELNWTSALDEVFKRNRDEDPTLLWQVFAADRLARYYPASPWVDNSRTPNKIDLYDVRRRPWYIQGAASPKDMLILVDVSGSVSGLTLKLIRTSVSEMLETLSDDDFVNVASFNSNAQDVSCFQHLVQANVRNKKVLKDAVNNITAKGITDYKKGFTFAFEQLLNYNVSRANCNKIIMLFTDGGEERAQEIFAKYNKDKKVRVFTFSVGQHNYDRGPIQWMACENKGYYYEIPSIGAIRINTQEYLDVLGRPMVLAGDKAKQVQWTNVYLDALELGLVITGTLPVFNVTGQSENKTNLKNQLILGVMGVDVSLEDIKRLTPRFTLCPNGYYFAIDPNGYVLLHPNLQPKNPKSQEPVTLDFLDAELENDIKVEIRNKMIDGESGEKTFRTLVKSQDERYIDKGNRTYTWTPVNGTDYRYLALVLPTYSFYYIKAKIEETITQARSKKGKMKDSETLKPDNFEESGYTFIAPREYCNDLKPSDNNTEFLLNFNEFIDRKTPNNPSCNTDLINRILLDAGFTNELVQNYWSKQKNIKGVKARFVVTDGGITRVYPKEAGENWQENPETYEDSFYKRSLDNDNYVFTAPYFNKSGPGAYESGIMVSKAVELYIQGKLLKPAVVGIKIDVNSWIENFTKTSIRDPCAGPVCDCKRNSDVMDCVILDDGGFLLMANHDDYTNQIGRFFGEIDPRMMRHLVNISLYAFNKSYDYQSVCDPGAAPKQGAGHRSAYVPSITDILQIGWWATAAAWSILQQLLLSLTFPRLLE
# Chain of isolated strips of the descending aorta (P54290 945-1091 partner limits assumed): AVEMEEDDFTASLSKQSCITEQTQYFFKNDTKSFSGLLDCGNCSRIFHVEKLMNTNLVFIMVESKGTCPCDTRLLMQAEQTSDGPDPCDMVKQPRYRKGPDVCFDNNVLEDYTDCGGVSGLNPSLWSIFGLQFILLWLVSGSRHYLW
# Experimental: The in vitro calcium antagonistic activity of the subject compounds of the formula (I) was evaluated according to substantially the same method as that of Toda et al., J. Pharmacol. Exp. Ther. 181, 512 (1972) and ibid., 191, 139 (1974).
# Male Wistar rats weighing 300-400 g were stunned by a sharp blow to the head. The isolated strips of the descending aorta were-fixed vartically in a 50 ml organ both containing Krebs-Henseleit solution maintained at 37° C. and saturated with a 95% O2 +5% CO2 gas mixture. Isometric tension was measured with a foree-displacement transducer and recorded on a polygraph recorder. During a 60-90 min equilibration period the resting tension was repeatedly adjusted to 1 g. The vessels having ability to potassium-induced contractions were exposed to a Ca^2+ -free medium for 30 min and then to 25 mM K^+ solution. When a contractile plateau was reached, Ca^2+ was added, and the cumulative response to 0.25, 0.5 and 4 mM Ca^2+ was recorded. After wash-out and a equilibration period with renewed testing of contractile ability, the preparations were once more exposed to Ca^2+ -free medium. The test compound was added to the organ bath 5 min before administration of potassium. Calcium was cumulatively added once again and the contractile response so obtained was expressed in percent of the contraction elicited by 4 mM Ca^2+. Dose-response curves for Ca^2+ were carried out cumulatively in the absence or presence of increasing concentrations of test compound. The pA2 values were calculated by the method of Arunlakshana et al., Brit. J. Pharmacol., 14, 48 (1959).
# SHR = assay: 4 weeks administration to SHR, hypotensive potency; assay type: in vivo, spontaneous hypertensive rats (SHR); details: 15 mg/kg/day po
# Experimental: The hypotensive potency of the compound D was also compared with that of nicardipine by administering to the SHR for 4 weeks at 15 mg/kg/day, po.
# [2] = system: isolated rabbit aortic strip; assay: inhibition of norepinephrine-induced contractions of isolated rabbit aortic strip potentiated by ouabain; assay type: cell-based; details: Oryctolagus cuniculus, read-out: concentration at which norepinephrine-induced contractions are inhibited
# [3] = system: mean arterial blood pressure; assay: antihypertensive vasodilating activity in anesthetized, ganglion-blocked rats with blood pressure maintained by intravenous angiotensin II; assay type: in vivo; details: 0.01 mg/kg and 0.003 mg/kg
# Experimental: The anesthetized and ganglion-blocked rats whose blood pressure were maintained by an intravenous infusion of angiotensin II were prepared and the test compounds were evaluated according to substantially the same method as that of Deitchman et al., J. Pharmacol Methods, 3, 311 (1980).
# [4] = system: spontaneous hypertensive rats (SHR); assay: single oral administration to spontaneous hypertensive rats (SHR), antihypertensive activity; assay type: in vivo; details: compound D 1 mg/kg vs nicardipine 3 mg/kg
# [5] = system: physiological saline loaded rats; assay: diuretic activity in physiological saline loaded rats; assay type: in vivo; details: compound D 3 mg/kg po vs nicardipine 10 mg/kg po
Kb [1],Structure (SMILES),minimal effective concentration [2],further results
0.0309 nM,"COC(=O)C1=C(C)NC(C)=C(c2nc(CN3CCCCC3)no2)C1c1cccc([N+](=O)[O-])c1 (centres unmarked) [A, Methyl 1,4-dihydro-2,6-dimethyl-3-(3-piperidinomethyl-1,2,4-oxadiazol-5-yl)-4-(3-nitrophenyl)pyridine-5-carboxylate hydrochloride]",,
0.363 nM,"COC(=O)C1=C(C)NC(C)=C(c2nc(CN3CCCCC3)no2)C1c1ccccc1 (centres unmarked) [B, Methyl 1,4-dihydro-2,6-dimethyl-3-(3-piperidinomethyl-1,2,4-oxadiazol-5-yl)-4-phenylpyridine-5-carboxylate hydrochloride]",,
0.129 nM,"COC(=O)C1=C(C)NC(C)=C(c2nc(CN3CCCCC3)no2)C1c1ccc(Cl)c(Cl)c1 (centres unmarked) [C, Methyl 1,4-dihydro-2,6-dimethyl-3-(3-piperidinomethyl-1,2,4-oxadiazol-5-yl)-4-(3,4-dichlorophenyl)pyridine-5-carboxylate hydrochloride]",,
0.0457 nM,"COC(=O)C1=C(C)NC(C)=C(c2nc(CNC(C)c3ccccc3)no2)C1c1cccc([N+](=O)[O-])c1 (stereo not drawn) [E, Methyl 1,4-dihydro-2,6-dimethyl-3-[3-(α-methylbenzylamino)methyl-1,2,4-oxadiazol-5-yl]-4-(3-nitrophenyl)-pyridine-5-carboxylate citrate]",,

# Further lines, the molecule ahead of its results:
Structure (SMILES),Kb [1],minimal effective concentration [2],further results
"COC(=O)C1=C(C)NC(C)=C(c2nc(C)no2)C1c1cccc([N+](=O)[O-])c1 (centres unmarked) [Compound R1, Methyl 1,4-dihydro-2,6-dimethyl-3-(3-methyl-1,2,4-oxadiazol-5-yl)-4-(3-nitrophenyl)pyridine-5-carboxylate, reference compound]",32.4 nM,,calcium antagonistic potency: times less potent than the subject compounds ([1]; R1 compared with compounds A-G): 100-1000 times
"COC(=O)C1=C(C)NC(C)=C(C(=O)OCCN(C)Cc2ccccc2)C1c1cccc([N+](=O)[O-])c1 (centres unmarked) [Compound R3, 2-(N--Benzyl-N--methylamino)ethyl methyl 1,4-dihydro-2,6-dimethyl-4-(3-nitrophenyl)pyridine-3,5-dicarboxylate, reference compound]",0.417 nM,> 0.1 µM,antihypertensive activity on 4 weeks administration (SHR): no significant effects
"COC(=O)C1=C(C)NC(C)=C(c2nc(CN(C)Cc3ccccc3)no2)C1c1cccc([N+](=O)[O-])c1 (centres unmarked) [D, Methyl 1,4-dihydro-2,6-dimethyl-3-[3-(N--benzyl-N--methylamino)methyl-1,2,4-oxadiazol-5-yl]-4-(3-nitrophenyl)-pyridine-5-carboxylate hydrochloride]",0.186 nM,0.01 µM,"antihypertensive effects in comparison with nifedipine and nicardipine [3]: dose-dependently more potent and long acting antihypertensive effects in comparison with nifedipine and nicardipine; antihypertensive activity in SHR [4]: about the same antihypertensive activity as that of nicardipine 3 mg/kg; duration of antihypertensive effect in SHR [4]: continued much longer than that of nicardipine; antihypertensive activity on 4 weeks administration (SHR): apparent antihypertensive activity; heart rate (SHR): slight decrease of heart rate; diuretic activity [5]: about the same diuretic activity as that of nicardipine 10 mg/kg, po"
"COC(=O)C1=C(C)NC(C)=C(c2nc(CN(C)CCc3ccc(OC)c(OC)c3)no2)C1c1cccc([N+](=O)[O-])c1 (centres unmarked) [F, Methyl 1,4-dihydro-2,6-dimethyl-3-[3-[N--(3,4-dimethoxyphenethyl)-N--methyl-amino]methyl-1,2,4-oxadiazol-5-yl]-4-(3-nitrophenyl)pyridine-5-carboxylate hydrochloride]",0.0955 nM,0.01 µM,
"CC1=C(C(=O)OC(C)C)C(c2cccc([N+](=O)[O-])c2)C(c2nc(CN(C)Cc3ccccc3)no2)=C(C)N1 (centres unmarked) [G, Isopropyl 1,4-dihydro-2,6-dimethyl-3-[3-(N--benzyl-N--methylamino)methyl-1,2,4-oxadiazol-5-yl]-4-(3-nitrophenyl)-pyridine-5-carboxylate hydrochloride]",0.355 nM,,
